Earlier results in patent publication US20020131987A1, “METHOD FOR ENHANCING STABLE CELLULAR CREATINE CONCENTRATION” (priority 1997, published 2002).

What was measured:
[1] = not given; remark: listed apart in the source
[2] = not given; remark: listed apart in the source
[3] = not given; remark: listed apart in the source
[4] = not given; remark: listed apart in the source

SMILES	reaction to litmus	formation of creatinine in aqueous solution ([1]; dissolved in an aqueous solution)	volume of alcohol in which one gram dissolves ([2]; alcohol)	volume of water in which one gram dissolves ([2]; water) [mL]	creatine lost from the cell ([3]; 70 kg male)	loss of creatine from skeletal muscle ([3]; human skeletal muscle)	formation of creatinine in acid solution ([1]; acid solution)	time for conversion of creatine to creatinine ([1]; acidic aqueous solution)	decomposition in the alimentary tract ([4]; after oral administration, no appreciable increase in urinary urea or ammonia)	absorption from the alimentary tract ([4]; oral administration)
CN(CC(=O)O)C(=N)N.O [creatine monohydrate]	neutral	creatinine is formed	about 9 liters	75	–	–	–	–	–	–
CN(CC(=O)O)C(=N)N [creatine]	–	–	–	–	approximately 2 grams per day	about 3 % per day	complete	a number of hours	not decomposed	completely absorbed
